From patent publication US20110092544A1, “FUNGICIDAL PYRIDINES” (E.I. DU PONT DE nemours and company, priority 2008, published 2011)

Experiments:
Format in all cases: in vivo
[1] = tested on: Puccinia recondite f. sp. tritici; experiment: Test B: wheat leaf rust, preventive spray on wheat seedlings, visual disease rating; conditions: for pest or weed control at 200 ppm: 192 h
In short: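 Wheat seedlings were sprayed to run-off with compound suspension, 200 ppm (≈500 g/ha) or 40 ppm where marked, containing surfactant in acetone/water. Inoculation with Puccinia recondita spores followed one day later, then 24 h in saturated humidity at 20° C and 7 days at 20° C. Disease control was rated visually, 0–100% versus controls.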

Plasmopara viticola = experiment: Test H: grape downy mildew, spray after inoculation of grape seedlings, visual disease rating; conditions: for pest or weed control at 200 ppm: Plasmopara viticola, 192 h
Source text: General protocol for preparing test suspensions for Tests A-H: The test compounds were first dissolved in acetone in an amount equal to 3% of the final volume and then suspended at the desired concentration (in ppm) in acetone and purified water (50/50 mix) containing 250 ppm of the surfactant Trem® 014 (polyhydric alcohol esters). The resulting test suspensions were then used in tests A-H. Spraying a 200 ppm test suspension to the point of run-off on the test plants was the equivalent of a rate of 500 g/ha.
Grape seedlings were inoculated with a spore suspension of Plasmopara viticola (the causal agent of grape downy mildew) and incubated in a saturated atmosphere at 20° C. for 24 h. After a short drying period, the test suspension was sprayed to the point of run-off on the grape seedlings, and then moved to a growth chamber at 20° C. for 6 days, after which time the test units were placed back into a saturated atmosphere at 20° C. for 24 h. Upon removal, disease ratings were visually made.
Results for Tests A-H are given in Table A. In the table, a rating of 100 indicates 100% disease control and a rating of 0 indicates no disease control (relative to the controls). A dash (-) indicates no test results. All results are for compounds tested at 200 ppm except where the compound number is followed by “*” which indicates the compound was tested at 40 ppm.

Botrytis cinerea = experiment: Test F: tomato botrytis, preventive spray on tomato seedlings, visual disease rating; conditions: for pest or weed control at 200 ppm: Botrytis cinerea, 120 h
In short: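 Tomato seedlings sprayed to run-off with compound suspended in acetone/water (50/50) plus 250 ppm Trem 014, at 200 ppm (≈500 g/ha) or 40 ppm where marked. Inoculated next day with B. cinerea spores, 48 h saturated atmosphere at 20 °C, then 3 days at 24 °C. Visual rating, 0–100% disease control relative to controls.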

Septoria nodorum = experiment: Test D: wheat glume blotch, preventive spray on wheat seedlings, visual disease rating; conditions: for pest or weed control at 200 ppm: Parastagonospora nodorum, 216 h
In short: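 Compounds in 3% acetone, then 50/50 acetone–water with 250 ppm Trem 014, sprayed to run-off at 200 ppm (500 g/ha; some at 40 ppm) one day before spore inoculation. Held 48 h saturated at 20 °C, then 7 days at 20 °C; visual rating as % disease control vs untreated (0–100).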

Alternaria solani = experiment: Test E: tomato early blight, preventive spray on tomato seedlings, visual disease rating; conditions: for pest or weed control at 200 ppm: Alternaria solani, 168 h
In short: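 Seedlings sprayed to run-off with compound in acetone/water plus 250 ppm Trem 014 (200 ppm ≈ 500 g/ha), inoculated with spores next day. Held 48 h saturated at 27 °C, then 5 days at 20 °C; visual rating 0–100% disease control relative to controls.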

[2] = tested on: Erysiphe graminis f. sp. tritici; experiment: Test A: wheat powdery mildew, preventive spray on wheat seedlings, visual disease rating; conditions: for pest or weed control at 200 ppm: Blumeria graminis, 192 h
In short: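 Acetone/water (50/50) suspension with 250 ppm surfactant sprayed to run-off on wheat seedlings (200 ppm ≈ 500 g/ha); inoculated next day with E. graminis spore dust. Incubated 8 days at 20° C, then visually rated 0–100% disease control versus untreated controls; tests at 200 ppm or 40 ppm.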

Septoria tritici = experiment: Test C: wheat leaf blotch, preventive spray on wheat seedlings, visual disease rating; conditions: for pest or weed control at 200 ppm: Zymoseptoria tritici, 504 h
In short: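 Wheat seedlings sprayed to run-off with compound in acetone/water plus 250 ppm surfactant at 200 ppm (≈500 g/ha), or 40 ppm where marked; inoculated with Septoria tritici next day. Held saturated at 20 °C for 48 h, then 19 days at 20 °C; disease control rated visually 0–100 versus controls.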

[3] = 200 ppm, 100 = 100% disease control, 0 = no control
[4] = 40 ppm (compound number followed by *)

SMILES: CCOC(=O)c1cnc(C)c(-c2ccccc2)c1-c1cc(OC)cc(OC)c1 [Compound 1]
- Test B rating (% disease control) [1, 3]: 28%
- Test H rating (% disease control) (Plasmopara viticola; [3]): 0%
- Test F rating (% disease control) (Botrytis cinerea; [3]): 99%
- Test D rating (% disease control) (Septoria nodorum; [3]): 0%
- Test E rating (% disease control) (Alternaria solani; [3]): 0%
- Test A rating (% disease control) [2, 3]: 96%

SMILES: COc1cc(OC)cc(-c2c(C(C)=O)cnc(C)c2-c2ccccc2)c1 [Compound 2]
- Test B rating (% disease control) [1, 3]: 0%
- Test H rating (% disease control) (Plasmopara viticola; [3]): 0%
- Test F rating (% disease control) (Botrytis cinerea; [3]): 99%
- Test D rating (% disease control) (Septoria nodorum; [3]): 0%
- Test E rating (% disease control) (Alternaria solani; [3]): 0%
- Test A rating (% disease control) [2, 3]: 95%

SMILES: CCOC(=O)c1cnc(C)c(-c2ccc(F)cc2)c1-c1cc(OC)cc(OC)c1 [Compound 11, ethyl 4-(3,5-dimethoxyphenyl)-5-(4-fluorophenyl)-6-methyl-3-pyridinecarboxylate]
- pest or weed control at 200 ppm [1, 3]: 0%
- pest or weed control at 200 ppm (Plasmopara viticola; [3]): 0%
- pest or weed control at 200 ppm (Botrytis cinerea; [3]): 0%
- pest or weed control at 200 ppm (Septoria nodorum; [3]): 0%
- pest or weed control at 200 ppm (Alternaria solani; [3]): 0%
- pest or weed control at 200 ppm [2, 3]: 98%
- pest or weed control at 200 ppm (Septoria tritici; [3]): 30%

SMILES: COc1cc(OC)cc(-c2c(C(C)=O)cnc(C)c2-c2ccc(F)cc2)c1 [Compound 12, 1-[4-(3,5-dimethoxyphenyl)-5-(4-fluorophenyl)-6-methyl-3-pyridinyl]ethanone]
- pest or weed control at 200 ppm [1, 3]: 93%
- pest or weed control at 200 ppm (Plasmopara viticola; [3]): 0%
- pest or weed control at 200 ppm (Botrytis cinerea; [3]): 99%
- pest or weed control at 200 ppm (Septoria nodorum; [3]): 0%
- pest or weed control at 200 ppm (Alternaria solani; [3]): 90%
- pest or weed control at 200 ppm [2, 3]: 95%
- pest or weed control at 200 ppm (Septoria tritici; [3]): 92%

SMILES: COc1cc(OC)cc(-c2c(C(C)(C)O)cnc(C)c2-c2ccc(F)cc2)c1 [Compound 13, 4-(3,5-dimethoxyphenyl)-5-(4-fluorophenyl)-α,α,6-trimethyl-3-pyridinemethanol]
- pest or weed control at 200 ppm [1, 3]: 99%
- pest or weed control at 200 ppm (Plasmopara viticola; [3]): 0%
- pest or weed control at 200 ppm (Botrytis cinerea; [3]): 99%
- pest or weed control at 200 ppm (Septoria nodorum; [3]): 0%
- pest or weed control at 200 ppm (Alternaria solani; [3]): 100%
- pest or weed control at 200 ppm [2, 3]: 96%
- pest or weed control at 200 ppm (Septoria tritici; [3]): 100%

SMILES: CCC(C)(O)c1cnc(C)c(-c2ccc(F)cc2)c1-c1cc(OC)cc(OC)c1 (centres unmarked) [Compound 14]
- Test B rating (% disease control) [1, 3]: 98%
- Test H rating (% disease control) (Plasmopara viticola; [3]): 0%
- Test F rating (% disease control) (Botrytis cinerea; [3]): 99%
- Test D rating (% disease control) (Septoria nodorum; [3]): 0%
- Test E rating (% disease control) (Alternaria solani; [3]): 99%
- Test A rating (% disease control) [2, 3]: 97%
- Test C rating (% disease control) (Septoria tritici; [3]): 99%

SMILES: CCOC(=O)c1cnc(C)c(-c2ccccc2)c1-c1cc(OC)ccc1F [Compound 15]
- Test B rating (% disease control) [1, 3]: 0%
- Test H rating (% disease control) (Plasmopara viticola; [3]): 0%
- Test F rating (% disease control) (Botrytis cinerea; [3]): 96%
- Test D rating (% disease control) (Septoria nodorum; [3]): 0%
- Test E rating (% disease control) (Alternaria solani; [3]): 0%
- Test A rating (% disease control) [2, 3]: 82%
- Test C rating (% disease control) (Septoria tritici; [3]): 7%

SMILES: COc1cc(OC)cc(-c2c(C(C)C)cnc(C)c2-c2ccccc2F)c1 [Compound 21]
- Test B rating (% disease control) [1, 3]: 99%
- Test H rating (% disease control) (Plasmopara viticola; [3]): 40%
- Test F rating (% disease control) (Botrytis cinerea; [3]): 98%
- Test D rating (% disease control) (Septoria nodorum; [3]): 0%
- Test E rating (% disease control) (Alternaria solani; [3]): 97%
- Test A rating (% disease control) [2, 3]: 100%
- Test C rating (% disease control) (Septoria tritici; [3]): 100%

SMILES: CCOC(=O)c1cnc(C)c(-c2ccccc2)c1-c1cc(OC)cc(OC)c1Cl [Compound 25]
- Test B rating (% disease control) [1, 4]: 0%
- Test H rating (% disease control) (Plasmopara viticola; [4]): 0%
- Test F rating (% disease control) (Botrytis cinerea; [4]): 84%
- Test D rating (% disease control) (Septoria nodorum; [4]): 0%
- Test E rating (% disease control) (Alternaria solani; [4]): 0%
- Test A rating (% disease control) [2, 4]: 0%
- Test C rating (% disease control) (Septoria tritici; [4]): 0%

SMILES: CCOC(=O)c1cnc(C)c(-c2ccccc2)c1-c1cc(OC)cc(OC)c1F [Compound 26]
- Test B rating (% disease control) [1, 3]: 68%
- Test H rating (% disease control) (Plasmopara viticola; [3]): 0%
- Test F rating (% disease control) (Botrytis cinerea; [3]): 98%
- Test D rating (% disease control) (Septoria nodorum; [3]): 0%
- Test E rating (% disease control) (Alternaria solani; [3]): 0%
- Test A rating (% disease control) [2, 3]: 94%
- Test C rating (% disease control) (Septoria tritici; [3]): 86%

SMILES: CCc1ncc(C(C)=O)c(-c2cc(OC)cc(OC)c2)c1-c1ccccc1 [Compound 27]
- Test B rating (% disease control) [1, 3]: 80%
- Test H rating (% disease control) (Plasmopara viticola; [3]): 0%
- Test F rating (% disease control) (Botrytis cinerea; [3]): 99%
- Test D rating (% disease control) (Septoria nodorum; [3]): 0%
- Test E rating (% disease control) (Alternaria solani; [3]): 92%
- Test A rating (% disease control) [2, 3]: 98%
- Test C rating (% disease control) (Septoria tritici; [3]): 100%

SMILES: CCc1ncc(C(C)(C)O)c(-c2cc(OC)cc(OC)c2)c1-c1ccccc1 [Compound 28]
- Test B rating (% disease control) [1, 3]: 28%
- Test H rating (% disease control) (Plasmopara viticola; [3]): 0%
- Test F rating (% disease control) (Botrytis cinerea; [3]): 99%
- Test D rating (% disease control) (Septoria nodorum; [3]): 0%
- Test E rating (% disease control) (Alternaria solani; [3]): 93%
- Test A rating (% disease control) [2, 3]: 96%
- Test C rating (% disease control) (Septoria tritici; [3]): 100%

SMILES: COc1cc(OC)cc(-c2c(-c3ccccc3F)c[n+]([O-])c(C)c2-c2ccccc2)c1 [Compound 33]
- Test H rating (% disease control) (Plasmopara viticola; [3]): 0%
- Test F rating (% disease control) (Botrytis cinerea; [3]): 95%
- Test E rating (% disease control) (Alternaria solani; [3]): 100%
- Test A rating (% disease control) [2, 3]: 79%

SMILES: CCOC(=O)c1c[n+]([O-])c(C)c(-c2ccccc2)c1-c1cc(OC)cc(OC)c1 [Compound 51]
- Test B rating (% disease control) [1, 3]: 0%
- Test H rating (% disease control) (Plasmopara viticola; [3]): 0%
- Test F rating (% disease control) (Botrytis cinerea; [3]): 0%
- Test D rating (% disease control) (Septoria nodorum; [3]): 0%
- Test E rating (% disease control) (Alternaria solani; [3]): 0%
- Test A rating (% disease control) [2, 3]: 76%

SMILES: Cc1nc(C#N)c(C)c(-c2ccc(Cl)cc2)c1-c1c(F)cccc1F [Compound 143]
- Test B rating (% disease control) [1, 4]: 97%
- Test F rating (% disease control) (Botrytis cinerea; [4]): 28%
- Test D rating (% disease control) (Septoria nodorum; [4]): 0%
- Test E rating (% disease control) (Alternaria solani; [4]): 97%
- Test A rating (% disease control) [2, 4]: 99%
- Test C rating (% disease control) (Septoria tritici; [4]): 100%

SMILES: Cc1cnc(C)c(-c2c(F)cccc2F)c1-c1ccc(Cl)cc1 [Compound 144]
- Test B rating (% disease control) [1, 4]: 0%
- Test F rating (% disease control) (Botrytis cinerea; [4]): 45%
- Test D rating (% disease control) (Septoria nodorum; [4]): 0%
- Test E rating (% disease control) (Alternaria solani; [4]): 0%
- Test A rating (% disease control) [2, 4]: 0%
- Test C rating (% disease control) (Septoria tritici; [4]): 0%
